{
  "source": "paper PMC5668067",
  "about": "“Phase I dose-escalation study of the c-Met tyrosine kinase inhibitor SAR125844 in Asian patients with advanced solid tumors, including patients with MET-amplified gastric cancer” (Oncotarget, 2017)",
  "key": {"[1]": {"test_system": "Asian patients with solid tumors", "experiment": "phase I dose escalation: dose-limiting toxicities, MTD and recommended dose", "type": "in vivo", "description": "This was an open-label, phase I, multicenter study consisting of a dose-escalation phase (to determine the MTD of SAR) and a dose-expansion phase (to evaluate the antitumor activity of SAR at the RD in patients with MET-amplified tumors, including gastric cancer).\nThe model was run based on DLTs occurring during the first cycle of treatment.\nSAR was administered by weekly intravenous infusion on days 1, 8, 15, and 22 of each 28–day cycle. The starting dose was 260 mg/m^2, and dose increments of 30% were made, to a maximum of 570 mg/m^2. Treatment continued until disease progression, unacceptable toxicity, or consent withdrawal. Patients were screened within 21 days before the first administration and followed for 30 days after the last administration.\nA DLT was defined as grade 4 neutropenia for ≥ 7 consecutive days, febrile neutropenia, grade 4 thrombocytopenia or grade 3 thrombocytopenia with bleeding requiring a transfusion, any grade ≥ 3 nonhematologic event not easily managed or corrected by medical intervention, or SAR-related toxicity resulting in two or more missed doses.\nThe safety population consisted of all patients exposed to SAR, regardless of the amount of treatment administered."}, "[2]": {"experiment": "phase I pharmacokinetics in blood (dried blood spot, LC-MS/MS, noncompartmental analysis)", "type": "in vivo, human", "conditions": "for fold increase in AUC0–168: 2.19-fold increase in dose (260 to 570 mg/m^2); for Cmax / AUC(0-t) / clearance / Vd / half-life / AUC: human, whole blood (dried blood spot), intravenous; for Cmax: blood; for AUC(0-t): read-out: AUC0–168; for clearance: read-out: CL (converted); for Vd: read-out: Vss; for half-life: read-out: t1/2z (converted)", "description": "Blood samples for pharmacokinetic analysis were acquired using dried blood-spot technology on days 1 and 22 of cycle 1 at several time points before, during, and after infusion (up to 168 hours after administration). Drug concentrations were determined by a validated method of liquid chromatography and tandem mass spectrometry (limit of quantification 2 ng/mL). Pharmacokinetic parameters were calculated using a noncompartmental analysis and included the maximum observed blood concentration (Cmax), AUC from 0 to infinity, AUC0–168, CL, CL after repeated administrations (CLss), volume of distribution at steady state (Vss), and the half-life associated with the terminal slope (t1/2z)."}, "[3]": {"conditions": "260 mg/m2, 260 mg/m^2, cycle 1 Day 1, n = 5, mean ± SD"}, "[4]": {"conditions": "260 mg/m2, 260 mg/m^2, cycle 1 Day 22, N = 2, mean"}, "[5]": {"conditions": "340 mg/m2, 340 mg/m^2, cycle 1 Day 1, N = 2, mean"}, "[6]": {"conditions": "340 mg/m2, 340 mg/m^2, cycle 1 Day 22, N = 3, mean ± SD"}, "[7]": {"conditions": "440 mg/m2, 440 mg/m^2, cycle 1 Day 1, n = 2, mean"}, "[8]": {"conditions": "440 mg/m2, 440 mg/m^2, cycle 1 Day 22, N = 3, mean ± SD"}},
  "note": "“Also recorded” adds a separate entry of the source. Where two headings read alike, the source gives them in different places.",
  "data": [
    {"smiles": "O=C(NCCN1CCOCC1)Nc1nc2ccc(Sc3nnc4ccc(-c5ccc(F)cc5)nn34)cc2s1", "note": "[SAR125844]", "values": [
      {"measurement": "recommended dose (RD)", "setting": "[1]; Asian patients, weekly i.v. infusion", "value": 570, "unit": "mg/m^2"},
      {"measurement": "maximum tolerated dose (MTD)", "setting": "[1]; dose-escalation cohort, 260–570 mg/m^2 weekly i.v.", "value": "not reached"},
      {"measurement": "dose-limiting toxicities (DLTs)", "setting": "[1]; dose-escalation phase, listed as SAR", "value": "No dose-limiting toxicities; also recorded: No DLTs"},
      {"measurement": "patients with a DLT", "setting": "[1]; expansion cohort, 570 mg/m^2, of 19 patients, cycle 1, transaminase and creatinine increases", "value": "one"},
      {"measurement": "fold increase in AUC0–168", "setting": "[2]; day 1", "value": 3.00, "unit": "fold"},
      {"measurement": "fold increase in AUC0–168", "setting": "[2]; day 22", "value": 2.69, "unit": "fold"},
      {"measurement": "accumulation between days 1 and 22", "setting": "[2]; four repeated once-weekly infusions", "value": "no accumulation"},
      {"measurement": "Cmax", "setting": "[2]; 260 mg/m2, 260 mg/m^2, cycle 1 Day 1, N = 6, mean ± SD", "value": "4140 ± 1070", "unit": "ng/mL"},
      {"measurement": "AUC(0-t)", "setting": "[2]; [3]", "value": "11800 ± 2960", "unit": "ng·h/mL"},
      {"measurement": "clearance", "setting": "[2]; [3]", "value": 608, "unit": "mL/min"},
      {"measurement": "Vd", "setting": "[2]; [3]", "value": "232 ± 57.5", "unit": "L"},
      {"measurement": "half-life", "setting": "[2]; [3]", "value": "12.6 ± 6.05", "unit": "h"},
      {"measurement": "AUC", "setting": "[2]; [4]", "value": 12600, "unit": "ng·h/mL"},
      {"measurement": "Cmax", "setting": "[2]; [4]", "value": 3550, "unit": "ng/mL"},
      {"measurement": "AUC(0-t)", "setting": "[2]; [4]", "value": 12700, "unit": "ng·h/mL"},
      {"measurement": "clearance", "setting": "[2]; [4]", "value": 533, "unit": "mL/min"},
      {"measurement": "Vd", "setting": "[2]; [4]", "value": 186, "unit": "L"},
      {"measurement": "half-life", "setting": "[2]; [4]", "value": 12.6, "unit": "h"},
      {"measurement": "AUC", "setting": "[2]; 260 mg/m2, AUC from 0 to infinity, 260 mg/m^2, cycle 1 Day 1, n = 5, mean ± SD", "value": "11800 ± 2950", "unit": "ng·h/mL"},
      {"measurement": "AUC", "setting": "[2]; [5]", "value": 16400, "unit": "ng·h/mL"},
      {"measurement": "Cmax", "setting": "[2]; [5]", "value": 4290, "unit": "ng/mL"},
      {"measurement": "AUC(0-t)", "setting": "[2]; [5]", "value": 16400, "unit": "ng·h/mL"},
      {"measurement": "clearance", "setting": "[2]; [5]", "value": 565, "unit": "mL/min"},
      {"measurement": "Vd", "setting": "[2]; [5]", "value": 246, "unit": "L"},
      {"measurement": "half-life", "setting": "[2]; [5]", "value": 12.9, "unit": "h"},
      {"measurement": "AUC", "setting": "[2]; [6]", "value": "16500 ± 2390", "unit": "ng·h/mL"},
      {"measurement": "Cmax", "setting": "[2]; [6]", "value": "4700 ± 976", "unit": "ng/mL"},
      {"measurement": "AUC(0-t)", "setting": "[2]; [6]", "value": "16500 ± 2390", "unit": "ng·h/mL"},
      {"measurement": "clearance", "setting": "[2]; [6]", "value": 557, "unit": "mL/min"},
      {"measurement": "Vd", "setting": "[2]; [6]", "value": "291 ± 52.6", "unit": "L"},
      {"measurement": "half-life", "setting": "[2]; [6]", "value": "20.6 ± 4.69", "unit": "h"},
      {"measurement": "Cmax", "setting": "[2]; 440 mg/m2, 440 mg/m^2, cycle 1 Day 1, N = 3, mean ± SD", "value": "6390 ± 1010", "unit": "ng/mL"},
      {"measurement": "AUC", "setting": "[2]; [7]", "value": 22000, "unit": "ng·h/mL"},
      {"measurement": "AUC(0-t)", "setting": "[2]; [7]", "value": 22100, "unit": "ng·h/mL"},
      {"measurement": "clearance", "setting": "[2]; [7]", "value": 530, "unit": "mL/min"},
      {"measurement": "Vd", "setting": "[2]; [7]", "value": 202, "unit": "L"},
      {"measurement": "half-life", "setting": "[2]; [7]", "value": 12.1, "unit": "h"},
      {"measurement": "AUC", "setting": "[2]; [8]", "value": "25400 ± 5300", "unit": "ng·h/mL"},
      {"measurement": "Cmax", "setting": "[2]; [8]", "value": "5840 ± 1420", "unit": "ng/mL"},
      {"measurement": "AUC(0-t)", "setting": "[2]; [8]", "value": "25300 ± 5220", "unit": "ng·h/mL"}
    ]}
  ]
}
